Tests used:
db/db mice = test: Antidiabetic effects in db/db mice, 2 weeks (Example I); type: in vivo, C57BL/Ksola mice; conditions: for Glucose / Glucose (% of Control): nonfasting; for Free Fatty Acids ± SEM / Triglycerides ± SEM: serum
Source text: db/db mice have a defect in leptin signaling, leading to hyperphagia, obesity and diabetes. Moreover, unlike ob/ob mice on a C57BL/6J background, db/db mice on a C57BL/KS background undergo failure of their insulin-producing pancreatic islet β cells, resulting in progression from hyperinsulinemia (associated with peripheral insulin resistance) to hypoinsulinemic diabetes.
A minimum of 7 days was allowed for adaptation after arrival.
Treatment cohorts were given daily oral doses of (1% hydroxypropylmethylcellulose), Compounds BI, BO, BP, BQ or BR for 2 weeks. At the end of the treatment period 100 μl of venous blood was withdrawn in a heparinized capillary tube from the retro-orbital sinus of db/db mice for serum chemistry analysis.

[1] = test system: ob/ob obese diabetic mice; test: Acute hypoglycemic effect in ob/ob obese diabetic mice: Expt 2; type: in vivo; conditions: single oral dose 250 mg/kg; for change in vivo at 250 mg/kg: Mus musculus, 6 hours, read-out: % Reduction vs Control
Description: Male ob/ob mice (50-55 grams; blood glucose ˜300 mg/dL) were divided into groups of five animals each, and given a single oral dose of test drug (250 mg/kg) suspended in 0.5% carboxymethylcellulose vehicle; a control group received oral vehicle alone.
Six hours after oral administration of test drugs or vehicle (control), blood samples were obtained from a tail vein and glucose content was determined with a glucometer.

[2] = test system: high fat-fed C57Bl/6J mice; test: Circulating triglycerides, free fatty acids, insulin and leptin in high fat-fed C57Bl/6J mice; type: in vivo; conditions: for Free Fatty Acids / Triglycerides: after 2 weeks of drug treatments
Source text: The high fat-fed mouse is a model for the hypertriglyceridemia and high circulating fatty acid levels, and the insulin and leptin resistance that are found in people at risk for and with obesity, diabetes, cardiovascular disease and other disorders. Male C57Bl/6J mice, approximately 8 weeks of age, were randomly assigned into groups of 6 animals. […] Mice were fed a high-fat diet (diet number D12451, containing 45% of calories as fat (Research Diets, New Brunswick, N.J.)) for 6 weeks. […]

Compound: COc1cccc(OC)c1COc1cccc(C(=O)CCC(=O)O)c1 [BO, 4-(3-(2,6-Dimethoxybenzyloxy)phenyl)-4-oxobutyric acid]
- Glucose (db/db mice; 100 mg/kg daily oral): 586 ± 58 mg/dL
- Glucose (% of Control) (db/db mice; 100 mg/kg daily oral): 93 ± 9 % of Control
- Free Fatty Acids ± SEM (db/db mice; 100 mg/kg daily oral): 3766.3 ± 234.5 µM
- Triglycerides ± SEM (db/db mice; 100 mg/kg daily oral): 261.1 ± 24.3 mg/dL

Compound: Cc1cccc(C)c1COc1cccc(C(=O)CC(C)(C)C(=O)O)c1 [BP, 4-(3-(2,6-Dimethylbenzyloxy)phenyl)-4-oxo-2,2-dimethylbutyric acid]
- Glucose (db/db mice; 100 mg/kg daily oral): 629 ± 86 mg/dL
- Glucose (% of Control) (db/db mice; 100 mg/kg daily oral): 99 ± 14 % of Control
- Free Fatty Acids ± SEM (db/db mice; 100 mg/kg daily oral): 3772.6 ± 182.5 µM
- Triglycerides ± SEM (db/db mice; 100 mg/kg daily oral): 302.1 ± 28.1 mg/dL

Compound: O=C(O)CCC(=O)c1cccc(OCc2ccc(C(F)(F)F)cc2)c1 [BQ, 4-(3-(4-Trifluoromethylbenzyloxy)phenyl)-4-oxobutyric acid]
- Glucose (db/db mice; 100 mg/kg daily oral): 473 ± 49 mg/dL
- Glucose (% of Control) (db/db mice; 100 mg/kg daily oral): 75 ± 7 % of Control
- Free Fatty Acids ± SEM (db/db mice; 100 mg/kg daily oral): 2825.9 ± 110.9 µM
- Triglycerides ± SEM (db/db mice; 100 mg/kg daily oral): 131.6 ± 20.7 mg/dL

Compound: O=C(O)CCC(=O)c1cccc(OCC2CCC2)c1 [BR, 4-(3-((Cyclobutyl)-methoxy)phenyl)-4-oxobutyric acid]
- Glucose (db/db mice; 82 mg/kg daily oral): 703 ± 64 mg/dL
- Glucose (% of Control) (db/db mice; 82 mg/kg daily oral): 111 ± 10 % of Control
- Free Fatty Acids ± SEM (db/db mice; 82 mg/kg daily oral): 3653.4 ± 207.5 µM
- Triglycerides ± SEM (db/db mice; 82 mg/kg daily oral): 253.0 ± 32.0 mg/dL

Compound: Cc1ccccc1COc1cccc(C(=O)CCC(=O)O)c1 [Compound AN, 4-(3-(2-Methylbenzyloxy)phenyl)-4-oxobutyric acid]
- change in vivo at 250 mg/kg [1]: -50.2 ± 4.5%
- Blood Glucose after 6 hours [1]: 152 ± 11 mg/dL

Compound: CCOC(=O)CCC(=O)c1ccc(OCc2c(F)cccc2F)cc1 [Compound AQ, Ethyl 4-(4-(2,6-difluorobenzyloxyl)phenyl)-4-oxobutyrate]
- change in vivo at 250 mg/kg [1]: -27.9 ± 4.2%
- Blood Glucose after 6 hours [1]: 220 ± 17 mg/dL

Compound: O=C(O)CCC(=O)c1ccc(OCCc2cccs2)cc1 [Compound AR, 4-(4-(2-(2-Thienyl)ethoxy)phenyl)-4-oxobutyric acid]
- change in vivo at 250 mg/kg [1]: -41.3 ± 4.2%
- Blood Glucose after 6 hours [1]: 179 ± 14 mg/dL

Compound: O=C(O)CCC(=O)c1c(F)cccc1F [Compound AS, 4-(2,6-Difluorophenyl)-4-oxobutyric acid]
- change in vivo at 250 mg/kg [1]: -45.2 ± 2%
- Blood Glucose after 6 hours [1]: 167 ± 28 mg/dL

Compound: Cc1ccc(C)c(COc2ccc(C(=O)CCC(=O)O)cc2)c1 [Compound AT, 4-(4-(2,5-Dimethylbenzyloxy)phenyl)-4-oxobutyric acid]
- change in vivo at 250 mg/kg [1]: -35.1 ± 2.3%
- Blood Glucose after 6 hours [1]: 198 ± 28 mg/dL

Compound: O=C(O)CCC(=O)c1ccc(OCc2cc(F)ccc2F)cc1 [Compound AU, 4-(4-(2,5-Difluorobenzyloxy)phenyl)-4-oxobutyric acid]
- change in vivo at 250 mg/kg [1]: -26.6 ± 2.8%
- Blood Glucose after 6 hours [1]: 224 ± 26 mg/dL

Compound: O=C(O)CCC(=O)c1ccc(OCc2ccc(F)cc2F)cc1 [Compound AV, 4-(4-(2,4-Difluorobenzyloxy)phenyl)-4-oxobutyric acid]
- change in vivo at 250 mg/kg [1]: -32.1 ± 3%
- Blood Glucose after 6 hours [1]: 207 ± 23 mg/dL

Compound: Cc1cccc(C)c1COc1cccc(C(=O)CCC(=O)[O-])c1.[Na+] [Compound BL, 4-(3-(2,6-Dimethylbenzyloxy)phenyl)-4-oxobutyric acid Sodium salt]
- Free Fatty Acids ([2]; 10 mg/kg oral gavage): 1571.8 ± 100.9 µmol/L
- Triglycerides ([2]; 10 mg/kg oral gavage): 80 ± 12.2 mg/dL
- Free Fatty Acids ([2]; 30 mg/kg oral gavage): 1413.2 ± 228.7 µmol/L
- Triglycerides ([2]; 30 mg/kg oral gavage): 66.4 ± 13.7 mg/dL
- Free Fatty Acids ([2]; 100 mg/kg oral gavage): 1133.5 ± 132.7 µmol/L
- Triglycerides ([2]; 100 mg/kg oral gavage): 41 ± 5.6 mg/dL
- serum triglycerides and free fatty acids ([2]; oral gavage): effective at lowering
- insulin serum levels ([2]; oral gavage, after 4 weeks of drug treatments (FIG. 1)): effective at lowering
- leptin serum levels ([2]; oral gavage, after 4 weeks of drug treatments (FIG. 2)): effective at lowering

Compound: Cc1cccc(Nc2cc(Cl)nc(SCC(=O)O)n2)c1C [Wy14643, reference compound]
- Free Fatty Acids ([2]; 10 mg/kg oral gavage): 1512.2 ± 172.9 µmol/L
- Triglycerides ([2]; 10 mg/kg oral gavage): 70.6 ± 10.8 mg/dL
- Free Fatty Acids ([2]; 30 mg/kg oral gavage): 1676 ± 237 µmol/L
- Triglycerides ([2]; 30 mg/kg oral gavage): 88 ± 12.5 mg/dL
- Free Fatty Acids ([2]; 100 mg/kg oral gavage): 1839.8 ± 154.8 µmol/L
- Triglycerides ([2]; 100 mg/kg oral gavage): 88.4 ± 18.8 mg/dL

— patent publication US6924314B2, “Compounds for the treatment of metabolic disorders” (Wellstat Therapeutics Corporation, priority 2001, dated 2005)
